Laboratory results published in patent US20230125749A1, “COMPOSITION CONTAINING PEPTIDE OR PEPTIDE COMPOUND AS ACTIVE INGREDIENT, AND MEDICAL USE THEREFOR” (AJOU UNIVERSITY INDUSTRY-ACADEMIC COOPERATION FOUNDATION, priority 2019, published 2023).

Test system: intraperitoneal macrophages
Assay: Fluorescence-labeled cells among intraperitoneal macrophages after oral administration of fluorescence-conjugated peptides to normal mice
Format: in vivo, mouse
Conditions: measured after 48 and 72 hours, FIG. 10
Method: Furthermore, peptides 1, 2, and 4 were orally administered to normal mice after conjugation with each different fluorescence, and the frequency of fluorescence-labeled cells was measured among intraperitoneal macrophages after 48 and 72 hours.

LICPEKYCNKVHT [P1]
time for which the fluorescence-labeled peptide was maintained among intraperitoneal macrophages: up to 72 hours
